{"source": "ChEMBL document CHEMBL4382198", "about": "“Discovery of Risdiplam, a Selective Survival of Motor Neuron-2 ( SMN2) Gene Splicing Modifier for the Treatment of Spinal Muscular Atrophy (SMA)” (J Med Chem, 2018)", "key": {"[1]": {"test": "Clearance in cynomolgus monkey at 0.1 mg/kg, iv administered as single dose", "assay_type": "ADME, organism-based, Macaca fascicularis", "details": "in vivo"}, "[2]": {"test": "Chronic toxicity in retina of po dosed cynomolgus monkey assessed as excess vacuolation of inner nuclear layer after 39 weeks by histological analysis", "assay_type": "organism-based, Macaca fascicularis", "details": "in vivo, 6552 h"}, "[3]": {"test": "AUC (0 to 24 hrs) in SMA neonatal delta7 mouse model at 0.1 mg/kg, ip dosed once daily starting from postnatal day 3 to postnatal day 9", "assay_type": "ADME, organism-based", "design": "time < 24 hr, dose 0.1 mg/kg, route intraperitoneal", "details": "in vivo"}, "[4]": {"test": "Volume of distribution at steady state in rat at 1.9 mg/kg, iv administered as single dose", "assay_type": "ADME, organism-based", "details": "in vivo, read-out: Vdss"}, "[5]": {"tested_on": "Mus musculus", "test": "In-vivo stabilization SMN2 mRNA in SMA delta7 ip dosed mouse assessed as increase in number of vGlut1 inputs in L3 to L5 spinal cord dosed daily starting from postnatal day 3 to postnatal day 14 by immunohistochemistry", "assay_type": "functional, organism-based"}, "[6]": {"tested_on": "Mus musculus", "test": "In-vivo stabilization SMN2 mRNA in SMA delta7 ip dosed mouse assessed as increase in muscle size dosed daily starting from postnatal day 3 to postnatal day 14 by immunohistochemistry", "assay_type": "functional, organism-based"}, "[7]": {"test": "Volume of distribution at steady state in cynomolgus monkey at 0.1 mg/kg, iv administered as single dose", "assay_type": "ADME, organism-based, Macaca fascicularis", "details": "in vivo, read-out: Vdss"}, "[8]": {"test": "Chronic toxicity in retina of po dosed cynomolgus monkey assessed as formation of scotopic depressed B-waves after 39 weeks by ERG analysis", "assay_type": "organism-based, Macaca fascicularis", "details": "in vivo, 6552 h"}, "[9]": {"tested_on": "Mus musculus", "test": "In-vivo stabilization SMN2 mRNA in SMA delta7 mouse assessed as increase in mean survival day at 0.1 mg/kg, ip dosed daily starting from postnatal day 3 to postnatal day 23 followed by po dosing 0.3 mg/kg per day via gavage (reference value: 10.5 days)", "assay_type": "functional"}, "[10]": {"tested_on": "Mus musculus", "test": "In-vivo stabilization of SMN2 mRNA in SMA neonatal delta7 mouse model assessed as increase in SMN protein levels in quadriceps at 1 mg/kg, ip dosed once daily starting from postnatal day 3 to postnatal day 9 relative to control", "assay_type": "functional"}, "[11]": {"tested_on": "Mus musculus", "test": "In-vivo stabilization of SMN2 mRNA in SMA adult C/C allele mouse model assessed as increase in SMN protein levels in quadriceps at 1 mg/kg, po dosed once daily for 10 days relative to control", "assay_type": "functional"}, "[12]": {"test": "Chronic toxicity in retina of po dosed cynomolgus monkey assessed as multifocal peripheral retina degeneration after 39 weeks by OCT analysis", "assay_type": "organism-based, Macaca fascicularis", "details": "in vivo, 6552 h"}, "[13]": {"tested_on": "Mus musculus", "test": "In-vivo stabilization of SMN2 mRNA in SMA neonatal delta7 mouse model assessed as increase in SMN protein levels in brain at 0.1 mg/kg, ip dosed once daily starting from postnatal day 3 to postnatal day 9 relative to control", "assay_type": "functional"}, "[14]": {"test": "Effect on FOXM1b/c mRNA splicing in human induced pluripotent stem cells by RT-qPCR analysis", "assay_type": "ADME", "details": "Homo sapiens"}, "[15]": {"tested_on": "Mus musculus", "test": "In-vivo stabilization of SMN2 mRNA in SMA neonatal delta7 mouse model assessed as increase in SMN protein levels in brain at 10 mg/kg, ip dosed once daily starting from postnatal day 3 to postnatal day 9 relative to control", "assay_type": "functional"}, "[16]": {"test": "Toxicity in po dosed cynomolgus monkey assessed phospholipidosis administered via gavage up to 39 weeks", "assay_type": "organism-based, Macaca fascicularis", "details": "in vivo, 6552 h"}}, "data": [{"compound": "Cc1cn2nc(-c3cc(=O)n4cc(N5CCNC6(CC6)C5)ccc4n3)cc(C)c2n1", "values": [{"measurement": "clearance", "setting": "[1]", "value": 5.7, "unit": "mL/min/kg"}, {"measurement": "Activity", "setting": "[2]", "value": "Toxic"}, {"measurement": "AUC at 24 h", "setting": "[3]", "value": 2200, "unit": "ng·h/mL"}, {"measurement": "Vd", "setting": "[4]", "value": 3.1, "unit": "L/kg"}, {"measurement": "Activity", "setting": "[5]", "value": "Dose-dependent effect"}, {"measurement": "Activity", "setting": "[6]", "value": "Dose-dependent effect"}, {"measurement": "Vd", "setting": "[7]", "value": 2, "unit": "L/kg"}, {"measurement": "Activity", "setting": "[8]", "value": "Toxic"}, {"measurement": "MSD", "setting": "[9]", "value": 26, "unit": "days"}, {"measurement": "Activity", "setting": "[10]", "value": 210, "unit": "%"}, {"measurement": "Activity", "setting": "[11]", "value": 0, "unit": "%"}, {"measurement": "Activity", "setting": "[12]", "value": "Toxic"}, {"measurement": "Activity", "setting": "[13]", "value": 28, "unit": "%"}, {"measurement": "IC50", "setting": "[14]", "value": 113, "unit": "nM"}, {"measurement": "Activity", "setting": "[15]", "value": 202, "unit": "%"}, {"measurement": "Activity", "setting": "[16]", "value": "Non-Toxic"}]}]}
